Measured values taken from article PMC6753678, “Fueling Open Innovation for Malaria Transmission-Blocking Drugs: Hundreds of Molecules Targeting Early Parasite Mosquito Stages” (Frontiers in Microbiology, 2019).
Where two headings read alike, the source gives them in different places.

Experiments:
[1] = system: P. falciparum late stage (stages IV-V) gametocytes; set-up: method as in Almela et al 2016; conditions: TCAMS screen comparison; ref Almela et al 2016; read-out: Pf GCT ATP IC50; cited from earlier work
[2] = system: P. falciparum late stage (stages IV-V) gametocytes; assay: P. falciparum late stage gametocyte ATP depletion assay (Pf GC-ATP); conditions: 1: YES; 0: NO
HepG2 cells [3] = assay: HepG2 cytotoxicity assay; conditions: HepG2 cytotoxicity unified across the three screens
Summary of the method: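 Cells at 2,500 per well in MEM with 10% fetal bovine serum and 1% NEAA were exposed to test compounds for 48 h at 37°C, 5% CO2. Viability was read by fluorescence, with percent inhibition calculated against 50 μM doxorubicin (positive) and DMSO (negative) controls.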

[4] = system: P. falciparum female gametocytes; assay: P. falciparum female gametogenesis assay (Pf FGAA); conditions: 1: YES; 0: NO
[5] = system: P. falciparum female gametocytes; set-up: method as in Miguel-Blanco et al 2017; conditions: TCAMS screen comparison; ref Miguel-Blanco et al 2017; read-out: Pf FGAA IC50; cited from earlier work
HepG2 cells [6] = conditions: cited from earlier work
[7] = system: P. berghei ookinete development; conditions: primary screen at 1 μM
[8] = value reported with the Pf FGAA screen, ref Miguel-Blanco et al 2017
[9] = value reported with the Pf GCT ATP screen, ref Almela et al 2016

Row | SMILES | IC50 [1] | Is compound selective in assay? Pf GC-ATP active? [2] | Unified cytotox (HepG2 cells [3]) | Is compound selective in assay? Pf FGAA active? [4] | IC50 [5] | HepG2 cytoxicity (HepG2 cells [6]; [8]) | HepG2 cytoxicity (HepG2 cells [6]; [9]) | % inhibition, Replicate A ([7]; replicate A) | % inhibition, Replicate B ([7]; replicate B)
1 | COc1cccc(OC)c1CN1CCC(N(C)CCCCCCCCCN2CCC(OC(=O)Nc3ccccc3-c3ccccc3)CC2)CC1 [TCMDC-134690] | 260 nM | 0 (0: NO) | 1.91 µM | 0 (0: NO) | 1310 nM | 1.91 µM | <1.56 µM | – | –
2 | Cc1sc2ncnc(Sc3nnc(N)s3)c2c1C [TCMDC-124542] | 300 nM | 1 (1: YES) | 36.31 µM | 1 (1: YES) | 770 nM | 36.31 µM | >25 µM | – | –
3 | Nc1c(Cl)cc(C(O)CNCCCCCOCCCc2ccc(O)c3ncccc23)cc1Cl.O=C(O)/C=C/C(=O)O (centres unmarked) [TCMDC-132088] | 450 nM | 1 (1: YES) | 6.14 µM | 0 (0: NO) | 2100 nM | 7.76 µM | 4.51 µM | – | –
4 | CC1(C)CC(NCCCCCCCOc2ccc(OCc3ccccc3)cc2)CC(C)(C)N1.Cl [TCMDC-138958] | 680 nM | 0 (0: NO) | 2.88 µM | 0 (0: NO) | 1230 nM | 2.75 µM | 3 µM | 59.61% | 10.57%
5 | COc1ccc(CNC(=O)c2cnc3c(O)cccc3c2Nc2cccc(NC(=O)c3ccc(Cl)c(Cl)c3)c2)cc1.O=C(O)C(F)(F)F [TCMDC-139607] | 680 nM | 0 (0: NO) | 1.56 µM | 0 (0: NO) | 1600 nM | – | <1.56 µM | – | –
6 | CN(CCCCN)Cc1ccc(-c2ccc(Cl)cc2)cc1 [TCMDC-140123] | 410 nM | 0 (0: NO) | 3.77 µM | 0 (0: NO) | 1580 nM | 3.55 µM | 3.99 µM | – | –
7 | Br.Oc1ccc(CCNCCCCCCNCCc2ccc(Cl)c3ccccc23)cc1O [TCMDC-131271] | 530 nM | 1 (1: YES) | 12.36 µM | 0 (0: NO) | 2380 nM | 11.22 µM | 13.5 µM | – | –
8 | CC1CCCCN1CCCNc1nc(NCc2ccccc2)c2ccccc2n1 (centres unmarked) [TCMDC-137771] | 140 nM | 1 (1: YES) | 17.35 µM | 0 (0: NO) | 7250 nM | 14.62 µM | 20.07 µM | – | –
9 | COc1ccc2nc(-c3ccccc3)cc(NCCCNc3cc(-c4ccccc4)nc4ccc(OC)cc34)c2c1.Cl [TCMDC-137734] | 1210 nM | 1 (1: YES) | 38.15 µM | 0 (0: NO) | 5600 nM | 70.79 µM | 5.5 µM | – | –
10 | C[C@H](Cc1ccc(CCc2ccc(C[C@@H](C)NC[C@H](O)c3cccc(Cl)c3)cc2)cc1)NC[C@H](O)c1cccc(Cl)c1.Cl [TCMDC-131551] | 270 nM | 1 (1: YES) | 3.68 µM | 0 (0: NO) | 2050 nM | 4.27 µM | 3.1 µM | – | –
